Literature values in patent publication US20120114757A1, “PARTICLES COMPRISING DROSPIRENONE ENCAPSULATED IN A POLYMER” (BAYER PHARMA AKTIENGESELLSCHAFT, priority 2009, published 2012).

stability under acid conditions (acid conditions): rearranged to an inactive isomer
solubility in water and aqueous buffers (various pH values): sparingly soluble
SMILES: C[C@]12CCC(=O)C=C1[C@@H]1C[C@@H]1[C@H]1[C@@H]3[C@@H]4C[C@@H]4[C@@]4(CCC(=O)O4)[C@@]3(C)CC[C@@H]12 [Drospirenone, 6β,7β;15β,16β-dimethylene-3-oxo-17α-pregn-4-ene-21,17-carbolactone]
